Assay results reported in article PMC9354042, “Discovery of BRAF/HDAC Dual Inhibitors Suppressing Proliferation of Human Colorectal Cancer Cells” (Frontiers in Chemistry, 2022).
Like-named read-outs stand apart in the source and are kept apart here.

Experiments:
HDAC5 = molecular target: T1, HDAC5 (Homo sapiens, UniProt Q9UQL6); assay: HDAC5 fluorescent-based enzymatic activity assay; format: biochemical; conditions: Table 3 isoform panel; read-out: Enzyme inhibition HDAC5 (Class IIA)
T1 construct: purchased BPS Bioscience
T1 sequence (Q9UQL6 whole entry, canonical isoform): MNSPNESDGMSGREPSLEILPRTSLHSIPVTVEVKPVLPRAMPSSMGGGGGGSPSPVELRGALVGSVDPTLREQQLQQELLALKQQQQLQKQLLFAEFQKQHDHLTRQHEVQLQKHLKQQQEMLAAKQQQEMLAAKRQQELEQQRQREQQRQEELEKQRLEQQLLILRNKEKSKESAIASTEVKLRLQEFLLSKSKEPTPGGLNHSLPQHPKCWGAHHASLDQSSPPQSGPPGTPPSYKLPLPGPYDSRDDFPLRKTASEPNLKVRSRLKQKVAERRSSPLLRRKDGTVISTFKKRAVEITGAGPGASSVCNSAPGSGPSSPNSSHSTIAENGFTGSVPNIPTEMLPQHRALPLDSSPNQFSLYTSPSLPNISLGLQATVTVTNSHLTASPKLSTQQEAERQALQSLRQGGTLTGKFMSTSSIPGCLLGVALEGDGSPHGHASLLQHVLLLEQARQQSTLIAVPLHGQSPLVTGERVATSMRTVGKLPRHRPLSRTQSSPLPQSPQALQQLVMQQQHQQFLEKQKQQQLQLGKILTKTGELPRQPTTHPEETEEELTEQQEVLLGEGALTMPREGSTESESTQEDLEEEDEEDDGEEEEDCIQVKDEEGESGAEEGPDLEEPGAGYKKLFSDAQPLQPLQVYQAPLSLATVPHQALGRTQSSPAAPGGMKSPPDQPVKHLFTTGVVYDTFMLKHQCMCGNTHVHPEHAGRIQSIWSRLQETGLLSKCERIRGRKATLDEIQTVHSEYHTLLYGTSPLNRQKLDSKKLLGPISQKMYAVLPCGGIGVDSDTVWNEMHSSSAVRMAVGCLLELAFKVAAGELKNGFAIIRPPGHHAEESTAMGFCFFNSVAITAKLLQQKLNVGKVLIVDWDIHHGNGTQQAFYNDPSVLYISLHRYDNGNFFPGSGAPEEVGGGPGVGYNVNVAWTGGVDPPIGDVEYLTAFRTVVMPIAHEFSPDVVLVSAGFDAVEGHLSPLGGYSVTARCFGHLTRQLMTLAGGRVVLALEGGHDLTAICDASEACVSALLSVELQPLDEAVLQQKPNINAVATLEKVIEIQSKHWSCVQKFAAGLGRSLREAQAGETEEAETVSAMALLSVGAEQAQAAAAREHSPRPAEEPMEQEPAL
Description: (§1) The purified recombinant Human HDACs and their corresponding substrates were purchased from BPS Bioscience (BPS Bioscience Inc., United States). The assays were carried out in a 384-well format using the BPS fluorescent–based HDAC activity assay according to the manufacturer’s protocol. In brief, […] of the HDAC reaction mixture was composed of HDAC assay buffer, […] BSA, serial diluted test compounds, appropriate concentration of HDACs, and […] fluorogenic substrate, the mixture was incubated at 37°C for 60 min, and then stopped by the addition of developer containing trypsin and TSA. After 20 min of incubation, the fluorescence was detected at the excitation wavelength of 360 nm and the emission wavelength of 460 nm using the EnVision Multilabel Reader (PerkinElmer Inc., United States). The analytical software, GraphPad Prism 5.0 (GraphPad Software, Inc., United States) was used to generate IC50 value via non-linear regression analysis.

HDAC6 = molecular target: T2, HDAC6 (Homo sapiens, UniProt Q9UBN7); assay: HDAC6 fluorescent-based enzymatic activity assay; format: biochemical
T2 construct: purchased BPS Bioscience
T2 sequence (Q9UBN7 1-1215): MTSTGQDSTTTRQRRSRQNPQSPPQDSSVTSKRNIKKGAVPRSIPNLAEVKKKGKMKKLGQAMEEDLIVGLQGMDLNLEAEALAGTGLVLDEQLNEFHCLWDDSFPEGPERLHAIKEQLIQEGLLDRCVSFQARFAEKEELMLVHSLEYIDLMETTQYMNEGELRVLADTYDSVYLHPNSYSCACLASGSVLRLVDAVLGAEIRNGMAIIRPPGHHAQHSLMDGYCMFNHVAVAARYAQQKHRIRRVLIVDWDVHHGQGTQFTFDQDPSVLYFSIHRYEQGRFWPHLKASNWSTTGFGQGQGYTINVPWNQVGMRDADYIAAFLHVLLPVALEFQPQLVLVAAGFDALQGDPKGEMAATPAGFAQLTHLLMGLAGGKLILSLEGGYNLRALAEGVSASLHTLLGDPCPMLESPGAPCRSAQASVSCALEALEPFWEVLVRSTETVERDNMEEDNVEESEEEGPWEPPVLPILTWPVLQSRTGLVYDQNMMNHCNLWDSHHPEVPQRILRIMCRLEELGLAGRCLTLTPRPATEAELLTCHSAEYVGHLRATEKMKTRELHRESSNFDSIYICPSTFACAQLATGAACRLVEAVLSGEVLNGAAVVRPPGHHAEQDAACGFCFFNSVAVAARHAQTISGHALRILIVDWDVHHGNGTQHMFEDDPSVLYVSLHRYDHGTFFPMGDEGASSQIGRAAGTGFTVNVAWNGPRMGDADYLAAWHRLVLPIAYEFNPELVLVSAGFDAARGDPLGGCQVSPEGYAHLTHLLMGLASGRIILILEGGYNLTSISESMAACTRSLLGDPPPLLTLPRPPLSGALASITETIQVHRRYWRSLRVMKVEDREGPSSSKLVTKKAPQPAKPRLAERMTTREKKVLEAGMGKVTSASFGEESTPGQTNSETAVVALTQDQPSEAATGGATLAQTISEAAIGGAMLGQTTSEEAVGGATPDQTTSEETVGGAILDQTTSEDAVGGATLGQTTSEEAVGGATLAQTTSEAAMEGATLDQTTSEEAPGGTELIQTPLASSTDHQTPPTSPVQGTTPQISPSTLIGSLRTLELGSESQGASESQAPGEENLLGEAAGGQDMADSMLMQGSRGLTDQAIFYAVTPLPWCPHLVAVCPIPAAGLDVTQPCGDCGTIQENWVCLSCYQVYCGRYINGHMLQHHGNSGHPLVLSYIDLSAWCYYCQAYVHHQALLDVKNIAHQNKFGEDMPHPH
Description: as §1

Compound: CC(C)(C)c1nc(-c2cccc(NS(=O)(=O)c3c(F)cccc3F)c2F)c(-c2ccnc(NCCCCCCC(=O)NO)n2)s1 [14b, 7-{[4-(2-(Tert-Butyl)-4-(3-((2,6-Difluorophenyl)Sulfonamido)-2-Fluorophenyl)Thiazol-5-yl)Pyrimidin-2-yl]Amino}-N-Hydroxyheptanamide]
- IC50 (HDAC5): 52.9 µM
- HDAC6 inhibition fold more potent than class I isoforms (HDAC6; HDAC6 vs HDAC1, HDAC2, HDAC3, HDAC8): > 10 fold
- HDAC6 inhibition fold more potent than class IIA HDACs (HDAC6; HDAC6 vs HDAC4, HDAC5, HDAC7): > 800 fold
- IC50 (HDAC6; Table 1, read-out: Enzymatic IC50 HDAC6): 0.0492 µM
- IC50 (HDAC6; Table 3 isoform panel, read-out: Enzyme inhibition HDAC6 (Class IIB)): 0.049 µM
